Assay results: patent US7927622B1, “Methods of transnasal transport/immunization with highly adaptable carriers” (priority 1999, dated 2011)
Non-standard residues stand in square brackets, D forms with d. Residues, ends and D or L forms follow the SMILES beside them. dTrp(2-Me) = Cc1[nH]c2ccccc2c1C[C@@H](N)C(=O)O

Experiments:
[1] = in vivo; cited from earlier work
[2] = in vivo, cited from earlier work
[3] = in vivo; cited from earlier work; remark: listed apart in the source
[4] = in vivo; cited from earlier work; remark: listed apart in the source
GH response = settings: in vivo, cited from earlier work
[5] = in vivo; cited from earlier work; remark: listed apart in the source
[6] = human, in vivo, cited from earlier work
[7] = cited from earlier work
[8] = in vivo; cited from earlier work; remark: listed apart in the source
A-receptor subtype = A-receptor subtype (Canis lupus familiaris, UniProt Q5D0K2); settings: dog, in vivo; cited from earlier work
Chain of A-receptor subtype (Q5D0K2 whole entry): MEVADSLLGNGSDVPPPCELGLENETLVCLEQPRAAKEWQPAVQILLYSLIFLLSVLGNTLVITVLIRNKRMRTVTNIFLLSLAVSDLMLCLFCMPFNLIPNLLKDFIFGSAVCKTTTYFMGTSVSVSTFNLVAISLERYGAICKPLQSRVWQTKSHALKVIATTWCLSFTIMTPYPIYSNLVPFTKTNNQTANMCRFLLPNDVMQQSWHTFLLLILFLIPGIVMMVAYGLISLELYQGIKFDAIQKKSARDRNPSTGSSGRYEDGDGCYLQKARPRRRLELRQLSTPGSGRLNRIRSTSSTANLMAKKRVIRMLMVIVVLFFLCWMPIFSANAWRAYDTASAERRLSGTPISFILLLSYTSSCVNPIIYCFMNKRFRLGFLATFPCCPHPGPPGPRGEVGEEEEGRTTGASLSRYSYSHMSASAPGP

[9] = rat, in vivo, sc; cited from earlier work
[10] = human, in vivo; cited from earlier work
[11] = in vivo; cited from earlier work; remark: listed apart in the source
anti-TT antibodies = tested on: anti-TT antibodies; set-up: species or system mice; settings: mouse, in vivo
[12] = stomach and GI tract, cited from earlier work
[13] = cited from earlier work; remark: listed apart in the source
[14] = cited from earlier work; remark: listed apart in the source
[15] = with polyoxyethylene 9-lauryl ether (Laureth-9)

## NC(=O)CC[C@@H]1NC(=O)[C@H](Cc2ccccc2)NC(=O)[C@H](Cc2ccc(O)cc2)NC(=O)[C@@H](N)CSSC[C@@H](C(=O)N2CCC[C@H]2C(=O)N[C@@H](CCCN=C(N)N)C(=O)NCC(N)=O)NC(=O)[C@H](CC(N)=O)NC1=O [AVP]
[1]
  memory performance: enhanced memory performance
[2]; iv
  plasma vasopressin increase after i.v. relative to the other route: exceeding 2000 fold
[2]
  P3 component of the ERP: substantially increased

## NC(=O)CC[C@@H]1NC(=O)[C@H](Cc2ccccc2)NC(=O)[C@H](Cc2ccc(O)cc2)NC(=O)CCSSC[C@@H](C(=O)N2CCC[C@H]2C(=O)N[C@H](CCCN=C(N)N)C(=O)NCC(N)=O)NC(=O)[C@H](CC(N)=O)NC1=O [DDAVP]
[3]
  pain perception: no general effect

## CCNC(=O)[C@@H]1CCCN1C(=O)[C@H](CCCNC(=N)N)NC(=O)[C@H](CC(C)C)NC(=O)[C@@H](COC(C)(C)C)NC(=O)[C@H](Cc1ccc(O)cc1)NC(=O)[C@H](CO)NC(=O)[C@H](Cc1c[nH]c2ccccc12)NC(=O)[C@H](Cc1cnc[nH]1)NC(=O)[C@@H]1CCC(=O)N1 [buserelin]
[4]
  AFS mean pelvic score after treatment (from 24): 7
  decrease of the size of the fibroids: 69%

## Cc1[nH]c2ccccc2c1C[C@@H](NC(=O)[C@@H](N)Cc1cnc[nH]1)C(=O)N[C@@H](C)C(=O)N[C@@H](Cc1c[nH]c2ccccc12)C(=O)N[C@H](Cc1ccccc1)C(=O)N[C@@H](CCCCN)C(N)=O [hexarelin] (H-H[dTrp(2-Me)]AW[dF]K-NH2)
GH response; po
  IGF-I and IGFBP-3 levels: slightly but significantly increased
GH response
  GH response: not significantly higher than that induced by an injection of 1 μg GHRH/kg
  IGF-I: did not significantly modify
  IGFBP-3 levels: increased

## NC(=O)CC[C@@H]1NC(=O)[C@H](Cc2ccccc2)NC(=O)[C@H](Cc2ccc(O)cc2)NC(=O)[C@@H](N)CSSC[C@@H](C(=O)N2CCC[C@H]2C(=O)N[C@@H](CCCN=C(N)N)C(=O)NCC(N)=O)NC(=O)[C@H](CC(N)=O)NC1=O [vasopressin]
[5]
  nocturnal slow-wave sleep: enhance nocturnal slow-wave sleep

## CCK-8
[6]; iv
  auditory event related potential (AERP): shown to affect the auditory event related potential (AERP)
[6]
  plasma CCK-8 concentrations vs 0.25 μg i.v.: comparable
  plasma CCK-8 concentrations vs 2.5 μg i.v.: substantially lower

## GH: growth hormone protein
[7]; i.v. 0.015 IU/kg
  serum GH peak value: 128 µg/L
[7]; s.c. 0.10 IU/kg
  serum GH peak level: around 14 μg/L
[7]; s.c. administration only
  serum IGF-I levels: increased significantly
[7]; s.c. injection
  bioavailability: 50%

## GHRP-2
[8]
  response to intranasal GHRP-2: significant, but not quantitated, response

## Hpa(SO3H)-Nle-Gly-Trp-Nle-MeAsp-Phe-NH2
A-receptor subtype
  feeding: inhibited feeding

## Salmon calcitonin
[9]
  effectiveness of the invasive method relative to nasal: approximately 2 times
  osteopenic changes: prevented the osteopenic changes
[10]
  decrease in serum 1,25-dihydroxyvitamin D: 14%
  inhibition of the increase in fasting 2 h urinary hydroxyproline/creatinine ratio (OHPr/Cr): 40%
  lowering of the increase in calcium/creatinine ratio (Ca/Cr): 80%
  pain scores (visual analog scale): did not influence the pain scores
  tolerability: well tolerated

## desglycinamide-[Arg8]vasopressin [DGAVP]
[11]
  learning concrete words: no positive effect
  reaction time for scanning of digits (Sternberg paradigm): reduced the reaction time
  short-term memory for abstract words: improved short-term memory for abstract words in males but not in females

## monophosphoryl Lipid A [LA]
anti-TT antibodies
  dependence of immune response on LA: no strong dependence was found
  dose dependence of TT-specific increase in serum absorbance: reverting this trend
  effect of LA with purified TT: profited from the presence of LA

B1: OVA: ovalbumin (protein, UniProt P01012 2-386, looked up)
Ovalbumin: GSIGAASMEFCFDVFKELKVHHANENIFYCPIAIMSALAMVYLGAKDSTRTQINKVVRFDKLPGFGDSIEAQCGTSVNVHSSLRDILNQITKPNDVYSFSLASRLYAEERYPILPEYLQCVKELYRGGLEPINFQTAADQARELINSWVESQTNGIIRNVLQPSSVDSQTAMVLVNAIVFKGLWEKAFKDEDTQAMPFRVTEQESKPVQMMYQIGLFRVASMASEKMKILELPFASGTMSMLVLLPDEVSGLEQLESIINFEKLTEWTSSNVMEERKIKVYLPRMKMEEKYNLTSVLMAMGITDVFSSSANLSGISSAESLKISQAVHAAHAEINEAGREVVGSAEAGVDAASVSEEFRADHPFLFCIKHIATNAVLFFGRCVSP
[12]; first printed range
  absorption into the blood circulation, of applied dose: 0.007-0.008%
[12]; second printed range
  absorption into the lymph circulation, of applied dose: 0.0007-0.002%

B2: rhG-CSF: recombinant human granulocyte colony-stimulating factor, MW=19600 (protein, UniProt P09919 31-207, looked up)
Granulocyte …: TPLGPASSLPQSFLLKCLEQVRKIQGDGAALQEKLVSECATYKLCHPEELVLLGHSLGIPWAPLSSCPSQALQLAGCLSQLHSGLFLYQGLLQALEGISPELGPTLDTLQLDVADFATTIWQQMEELGMAPALQPTQGAMPAFASAFQRRAGGVLVASHLQSFLEVSYRVLRHLAQP
[13]; nasal, pH 4, with or without dimethyl-β-cyclodextrin
  total leukocyte numbers in peripheral blood: increased
[13]; with dimethyl-β-cyclodextrin
  absorption with excipients: improved the absorption of rhG-CSF appreciably
[14]; nasal, t=48 h
  availability from leukocyte stimulation counts: 5-10%
[14]; rat, in vivo
  relative bioavailability compared to s.c. injection (plasma AUC): approximately 2%
[14]; [15]
  increase of pharmacological availability: 3 times
  increase of relative bioavailability: 23 times
[14]; with sodium glycocholate
  change of availability: no increase in availability
